These results are taken from patent publication US20210087191A1, “SUBSTITUTED 3-ISOBUTYL-9,10-DIMETHOXY-1,3,4,6,7,11B-HEXAHYDRO-2H-PYRIDO[2,1-a]ISOQUINOLIN-2-OL COMPOUNDS, THEIR [sequence], AND USE THEREOF” (DISPERSOL TECHNOLOGIES, LLC, priority 2020, published 2021).

The nature of data set [1]: Kinetic solubility in PBS buffer. Particulars: aqueous buffer, kinetic from dmso stock, compound suspended at 300 μM, 25° C. The class given is physicochemical. As for the experimental part:
Kinetic solubility was determined by suspending compound at 300 μM at pH 1.2 and 7.4 in PBS buffer. The suspension was equilibrated by shaking at 25° C. at 1100 RPM for 2 hours and then pH was measured following filtration. The filtrate was then diluted by an appropriate factor (e.g. 100-fold). Quantitation was done by LC-MS/MS with reference to a standard solution.

Data set [2] in a line: Stability in human plasma (PS), LC-MS/MS. Particulars: for half-life: read-out: Human PS t1/2. The class given is in vitro ADME. As for the experimental part:
(§1) Metabolism of compound(s) to release (+)-α-DTHBZ was determined by the half-life (t1/2) and intrinsic clearance (CIint) in human plasma (PS) and liver microsomes (LM) using tandem mass spectrometry (LC-MS/MS).

The nature of data set [3]: Heps. stability assay, human cryopreserved hepatocytes. In kind it is in vitro ADME. Particulars: for microsomal CLint: read-out: Heps. stability assay Human Clint (μL/min/mg protein); for half-life: read-out: Heps. stability assay Human t1/2. As to the method: Metabolism of compound(s) to release (+)-α-DTHBZ was determined by the half-life (t1/2) and intrinsic clearance (CIint) in human cryopreserved hepatocytes using tandem mass spectrometry (LC-MS/MS).

Data set [4] is described as follows: Permeability in Caco-2 cell monolayer. Particulars: human; for efflux ratio: Caco-2; for Papp A→B: Caco-2, apical to basolateral; for Papp B→A: Caco-2, basolateral to apical. The class given is in vitro ADME. As to the method:
The intestinal permeability of compound(s) was evaluated in Caco-2 cells by assessing transport across the cell monolayer in the apical to basolateral (A-B) direction. Active efflux was also assessed by measuring transport in the basolateral to apical (BA) direction which enables evaluation of the efflux ratio. Analysis of transport is quantified by tandem mass spectrometry (LC-MS/MS).
For orientation: Caco-2 monolayers are a common model of the intestinal barrier.

Data set [5] can be described thus: LM stability assay, human (second table). To be noted: human liver microsomes, Table 2; for microsomal CLint: read-out: LM stability assay Human Clint (μL/min/mg protein); for half-life: read-out: LM stability assay Human t1/2. In kind it is in vitro ADME. As to the method:
Metabolism of compound(s) to release (+)-α-DTHBZ was determined by the half-life (t1/2) and intrinsic clearance (CIint) in human liver microsomes (LM) using tandem mass spectrometry (LC-MS/MS).

Data set [6] can be described thus: Metabolic stability in human liver microsomes (LM), LC-MS/MS (first table). The class given is in vitro ADME. To be noted: for microsomal CLint: Table 1, read-out: Human LM CLint (μL/min/mg protein); for half-life: Table 1, read-out: Human LM t1/2. As for the experimental part:
as §1
(In general: Microsomes from liver hold many membrane-bound enzymes, among them those of drug oxidation.)

[7] abbreviates: pH 1.2, PBS buffer, read-out: Kinetic Solubility pH = 1.2 (300 μM).
Setting [8] is: pH 7.4, PBS buffer, read-out: Kinetic Solubility pH = 7.4 (300 μM).

The structures appear in SMILES notation. In brackets after ≈: the same amount, converted by molar mass. Structures can show the parent of a compound that is named as a salt. Where two headings read alike, the source gives them in different places.

On to `COc1cc2c(cc1OC)[C@H]1C[C@@H](OC(=O)/C=C/C(=O)N[C@@H](Cc3ccccc3)C(=O)O)[C@H](CC(C)C)CN1CC2` [Example 12, (2S)-2-[(2E)-4-[[(2R,3R,11bR)-9,10-dimethoxy-3-(2-methylpropyl)-1H,2H,3H,4H,6H,7H,11bH-pyrido[2,1-a]isoquinolin-2-yl]oxy]-4-oxobut-2-enamido]-3-phenylpropanoic acid], for which the kinetic solubility (commonly the concentration staying in solution when a stock, usually in DMSO, is diluted into the medium) at 2 h is 320 µM (≈ 181 µg/mL) in data set [1] (setting [7]) and 306 µM (≈ 173 µg/mL) in data set [1] (setting [8]). Besides, the half-life in data set [2] came out at 0.238 h; in data set [3], 3.69 h; in data set [5], 8.91 h; in data set [6], 11.5 h. The microsomal CLint was found to be 6.27 µL/min/mg in data set [3], 2.38 µL/min/mg in data set [5] and 1.42 µL/min/mg in data set [6]. Besides, the efflux ratio (as a rule, the permeability from basolateral to apical divided by that in the opposite direction, in the common usage) in data set [4] was determined as 85.4. In data set [4], the Papp A→B (in general, the apparent permeability from the apical to the basolateral side of a cell layer) turned out to be 0.13 ×10⁻⁶ cm/s. In addition, the apparent permeability from basolateral to apical (Papp B→A) (in general, the apparent permeability from the basolateral to the apical side of a cell layer) in data set [4] was found to be 11.3 ×10⁻⁶ cm/s.
Turning to `COc1cc2c(cc1OC)[C@H]1C[C@@H](OC(=O)/C=C\C(=O)N[C@H](C(=O)O)C(C)C)[C@H](CC(C)C)CN1CC2` [Example 13, (2S)-2-[(2Z)-4-[[(2R,3R,11bR)-9,10-dimethoxy-3-(2-methylpropyl)-1H,2H,3H,4H,6H,7H,11bH-pyrido[2,1-a]isoquinolin-2-yl]oxy]-4-oxobut-2-enamido]-3-methylbutanoic acid], the kinetic solubility at 2 h was found to be 303 µM (≈ 156 µg/mL) in data set [1] (setting [7]) and 300 µM (≈ 155 µg/mL) in data set [1] (setting [8]). Further, the half-life in data set [2] amounted to 2.38 h; in data set [3], 4.89 h; in data set [5], 51.1 h; in data set [6], 5.76 h. Besides, the microsomal CLint in data set [3] worked out at 4.75 µL/min/mg; in data set [5], 0.35 µL/min/mg; in data set [6] it was 2.17 µL/min/mg. Besides, the efflux ratio in data set [4] is greater than 402. In addition, the Papp A→B in data set [4] was less than 0.01 ×10⁻⁶ cm/s. The Papp B→A in data set [4] turned out to be 4.02 ×10⁻⁶ cm/s.
As for `COc1cc2c(cc1OC)[C@H]1C[C@@H](OC(=O)CCC(=O)O[C@@H]3C[C@@H]4c5cc(OC)c(OC)cc5CCN4C[C@H]3CC(C)C)[C@H](CC(C)C)CN1CC2` [Example 17], the results for the kinetic solubility at 2 h in data set [1] (setting [7]) and in data set [1] (setting [8]) were 308 µM (≈ 222 µg/mL) and 0.0019 µM (≈ 0.00137 µg/mL), respectively. In addition, the half-life in data set [2] came out at 36.9 h; in data set [3], 1.37 h; in data set [5], 0.162 h; in data set [6], 7.6 h. Besides, the results for the microsomal CLint in data set [3], in data set [5] and in data set [6] were 16.9 µL/min/mg, 71.5 µL/min/mg and 1.59 µL/min/mg, respectively. Further, in data set [4], the efflux ratio was greater than 1.93. Moreover, the apparent permeability from apical to basolateral (Papp A→B) in data set [4] is less than 0.02 ×10⁻⁶ cm/s. In data set [4], this compound displayed a Papp B→A of 0.0333 ×10⁻⁶ cm/s.
As to `COc1cc2c(cc1OC)[C@H]1C[C@@H](OC(=O)c3cncc(C(=O)O[C@@H]4C[C@@H]5c6cc(OC)c(OC)cc6CCN5C[C@H]4CC(C)C)c3)[C@H](CC(C)C)CN1CC2` [Example 15, 3,5-bis[(2R,3R,11bR)-9,10-dimethoxy-3-(2-methylpropyl)-1H,2H,3H,4H,6H,7H,11bH-pyrido[2,1-a]isoquinolin-2-yl] pyridine-3,5-dicarboxylate], the solubility (kinetic) at 2 h in data set [1] (setting [7]) turned out to be 317 µM (≈ 244 µg/mL); in data set [1] (setting [8]) it was 0.06 µM (≈ 0.0462 µg/mL). Further, the half-life was greater than 53.7 h in data set [2], 1.39 h in data set [3] and greater than 143 h in data set [6]. The microsomal CLint in data set [3] was 16.6 µL/min/mg; in data set [6], less than 0.08 µL/min/mg. In addition, in data set [4], the Papp A→B is less than 0.01 ×10⁻⁶ cm/s. In data set [4], the Papp B→A is less than 0.01 ×10⁻⁶ cm/s. Also, in data set [5], the “LM stability assay Human t1/2 (min)” value is recorded as “∞”.
Consider `COc1cc2c(cc1OC)[C@H]1C[C@@H](OC(=O)CCCCCCC(=O)O)[C@H](CC(C)C)CN1CC2` [Example 5, 8-[[(2R,3R,11bR)-9,10-dimethoxy-3-(2-methylpropyl)-1H,2H,3H,4H,6H,7H,11bH-pyrido[2,1-a]isoquinolin-2-yl]oxy]-8-oxooctanoic acid], for which, in data set [1] (setting [7]), the kinetic solubility at 2 h came to 276 µM (≈ 131 µg/mL). Also, in data set [1] (setting [8]), the kinetic solubility at 2 h came to 306 µM (≈ 146 µg/mL). Further, in data set [2], the “Human PS t1/2 (min)” value is listed as “∞”. For the same compound, in data set [3], the microsomal CLint came to 50.7 µL/min/mg and the half-life came to 0.456 h. Moreover, in data set [4], the efflux ratio was determined as 0.98, the apical-to-basolateral permeability (Papp A→B) was 22.4 ×10⁻⁶ cm/s and the apparent permeability from basolateral to apical (Papp B→A) was 22 ×10⁻⁶ cm/s. For the same compound, in data set [5], the microsomal CLint came out at 1.04 µL/min/mg and the half-life amounted to 56.8 h. Further, in data set [6], the microsomal CLint was found to be 3.16 µL/min/mg and the half-life was determined as 3.89 h.
Take `COc1cc2c(cc1OC)[C@H]1C[C@@H](OC(=O)/C=C/C(=O)O[C@@H]3C[C@@H]4c5cc(OC)c(OC)cc5CCN4C[C@H]3CC(C)C)[C@H](CC(C)C)CN1CC2` [Example 18, bis[(2R,3R,11bR)-9,10-dimethoxy-3-(2-methylpropyl)-1H,2H,3H,4H,6H,7H,11bH-pyrido[2,1-a]isoquinolin-2-yl] (2E)-but-2-enedioate]: the half-life in data set [2] was greater than 11 h. In data set [6], the microsomal CLint was found to be 1.11 µL/min/mg and the half-life was found to be 20.8 h.
As to `COc1cc2c(cc1OC)[C@@H]1C[C@H](OC(=O)C(=O)O)[C@@H](CC(C)C)CN1CC2` (stereo in doubt) [Example 1, (2S,3S,11bS)-9,10-dimethoxy-3-(2-methylpropyl)-1H,2H,3H,4H,6H,7H,11bH-pyrido[2,1-a]isoquinolin-2-yl hydrogen oxalate], in data set [2], the “Human PS t1/2 (min)” value is recorded as “∞”. In data set [6], the microsomal CLint worked out at 3.24 µL/min/mg and the half-life is 6.91 h.
Take `COc1cc2c(cc1OC)[C@@H]1C[C@H](OC(=O)/C=C/C(=O)O)[C@@H](CC(C)C)CN1CC2` (stereo in doubt) [Example 3, (2E)-4-[[(2S,3S,11bS)-9,10-dimethoxy-3-(2-methylpropyl)-1H,2H,3H,4H,6H,7H,11bH-pyrido[2,1-a]isoquinolin-2-yl]oxy]-4-oxobut-2-enoic acid]: in data set [2], the half-life came to 12.7 h. Besides, in data set [6] (Table 1), the “Human LM t1/2 (min)” value is “∞”.
With `COc1cc2c(cc1OC)[C@H]1C[C@@H](OC(=O)/C=C/C(=O)OC(C)C)[C@H](CC(C)C)CN1CC2` [Example 8, (2R,3R,11bR)-9,10-dimethoxy-3-(2-methylpropyl)-1H,2H,3H,4H,6H,7H,11bH-pyrido[2,1-a]isoquinolin-2-yl 1-isopropyl (2E)-but-2-enedioate], the half-life in data set [2] is greater than 11.8 h. In data set [6], the microsomal CLint came to 98 µL/min/mg and the half-life was 0.118 h.
On to `COc1cc2c(cc1OC)[C@H]1C[C@@H](OC(=O)/C=C\C(=O)OC(C)C)[C@H](CC(C)C)CN1CC2` [Example 10, (2R,3R,11bR)-9,10-dimethoxy-3-(2-methylpropyl)-1H,2H,3H,4H,6H,7H,11bH-pyrido[2,1-a]isoquinolin-2-yl 1-isopropyl (2Z)-but-2-enedioate], for which the half-life in data set [2] is greater than 3770 h. Moreover, in data set [6], the microsomal CLint came out at 104 µL/min/mg and the half-life came to 0.111 h.
Take `COc1cc2c(cc1OC)[C@H]1C[C@@H](OC(=O)/C=C\C(=O)N[C@@H](Cc3ccccc3)C(=O)O)[C@H](CC(C)C)CN1CC2` [Example 14, (2S)-2-[(2Z)-4-[[(2R,3R,11bR)-9,10-dimethoxy-3-(2-methylpropyl)-1H,2H,3H,4H,6H,7H,11bH-pyrido[2,1-a]isoquinolin-2-yl]oxy]-4-oxobut-2-enamido]-3-phenylpropanoic acid]: the half-life in data set [2] was found to be 0.2 h. Besides, in data set [6], the microsomal CLint worked out at 2.91 µL/min/mg and the half-life was 4.16 h.
